Key:
[1] = molecular target: T1, scanMAX Kinase assay panel (Homo sapiens, UniProt P33981); experiment: Kinase selectivity, scanMAX Kinase assay panel (DiscoverX), % control at 1 uM; assay type: binding; settings: TTK; 1 uM; read-out: Percent Control (%)
T1 construct: purchased DiscoverX
T1 sequence (P33981 1-857): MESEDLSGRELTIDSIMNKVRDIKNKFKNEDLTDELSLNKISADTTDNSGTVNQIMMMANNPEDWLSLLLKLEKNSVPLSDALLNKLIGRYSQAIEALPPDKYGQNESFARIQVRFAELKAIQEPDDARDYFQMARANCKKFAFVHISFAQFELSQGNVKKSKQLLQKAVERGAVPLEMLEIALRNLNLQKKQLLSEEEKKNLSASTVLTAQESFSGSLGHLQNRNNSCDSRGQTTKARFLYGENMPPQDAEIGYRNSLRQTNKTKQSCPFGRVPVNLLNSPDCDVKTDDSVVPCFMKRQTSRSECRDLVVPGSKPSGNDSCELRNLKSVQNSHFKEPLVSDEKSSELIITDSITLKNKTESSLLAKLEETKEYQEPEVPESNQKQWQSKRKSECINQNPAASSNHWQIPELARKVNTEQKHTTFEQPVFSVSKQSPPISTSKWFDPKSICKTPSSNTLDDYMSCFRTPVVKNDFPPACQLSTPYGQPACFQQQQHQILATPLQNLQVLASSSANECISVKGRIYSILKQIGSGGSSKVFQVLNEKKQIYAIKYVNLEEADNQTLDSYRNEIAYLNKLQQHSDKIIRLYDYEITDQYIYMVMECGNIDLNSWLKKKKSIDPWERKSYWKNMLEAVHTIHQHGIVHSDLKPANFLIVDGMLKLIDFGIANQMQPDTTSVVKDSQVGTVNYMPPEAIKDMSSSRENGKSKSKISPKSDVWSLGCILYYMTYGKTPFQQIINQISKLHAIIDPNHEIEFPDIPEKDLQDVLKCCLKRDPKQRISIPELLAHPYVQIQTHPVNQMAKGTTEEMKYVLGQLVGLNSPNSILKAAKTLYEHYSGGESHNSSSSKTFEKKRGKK
In short: (§1)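 Compounds were tested at 1 uM in DMSO against each enzyme in the panel. Percent control was calculated as (compound − positive control)/(negative control − positive control) × 100, and a compound was scored active on a kinase when this value fell below 35.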

[2] = molecular target: T2, scanMAX Kinase assay panel (Homo sapiens, UniProt O75385); experiment: as above; assay type: binding; settings: ULK1; 1 uM; read-out: Percent Control (%)
T2 construct: purchased DiscoverX
T2 sequence (O75385 1-1050): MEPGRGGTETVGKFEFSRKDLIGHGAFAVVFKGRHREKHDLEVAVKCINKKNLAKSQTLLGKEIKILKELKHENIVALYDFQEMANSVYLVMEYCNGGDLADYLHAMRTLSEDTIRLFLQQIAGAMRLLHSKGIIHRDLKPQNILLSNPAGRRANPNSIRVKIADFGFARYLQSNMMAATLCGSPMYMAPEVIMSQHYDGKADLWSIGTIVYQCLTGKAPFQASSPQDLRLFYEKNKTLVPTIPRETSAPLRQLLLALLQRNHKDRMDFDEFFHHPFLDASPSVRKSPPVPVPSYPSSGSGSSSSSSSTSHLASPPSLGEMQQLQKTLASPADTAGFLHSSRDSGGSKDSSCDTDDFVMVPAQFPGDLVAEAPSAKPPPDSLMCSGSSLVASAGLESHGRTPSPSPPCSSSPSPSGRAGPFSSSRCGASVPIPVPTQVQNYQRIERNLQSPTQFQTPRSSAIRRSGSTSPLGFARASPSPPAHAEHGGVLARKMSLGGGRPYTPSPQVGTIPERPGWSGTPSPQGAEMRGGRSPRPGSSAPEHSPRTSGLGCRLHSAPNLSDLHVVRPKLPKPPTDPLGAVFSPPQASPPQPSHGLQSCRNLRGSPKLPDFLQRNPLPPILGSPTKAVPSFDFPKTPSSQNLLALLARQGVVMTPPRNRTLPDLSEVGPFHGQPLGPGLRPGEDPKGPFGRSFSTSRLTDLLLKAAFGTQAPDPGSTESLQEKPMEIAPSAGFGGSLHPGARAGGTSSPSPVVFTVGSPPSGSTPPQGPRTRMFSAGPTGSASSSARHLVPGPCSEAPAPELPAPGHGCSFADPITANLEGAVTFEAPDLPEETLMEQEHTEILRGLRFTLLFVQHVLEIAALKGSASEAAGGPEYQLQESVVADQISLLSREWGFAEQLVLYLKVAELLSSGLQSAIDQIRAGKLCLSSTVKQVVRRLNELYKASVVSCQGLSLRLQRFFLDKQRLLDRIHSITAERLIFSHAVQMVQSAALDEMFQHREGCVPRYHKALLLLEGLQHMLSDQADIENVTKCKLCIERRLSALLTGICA
In short: as §1

## Cc1ccc(C(=O)Nc2ccc(CN3CCN(C)CC3)c(C(F)(F)F)c2)cc1C#Cc1cnc2c(Nc3cnn(C)c3)cccn12 [Example 1, 4-methyl-3-((8-((1-methyl-1H-pyrazol-4-yl)amino)imidazo[1,2-a]pyridin-3-yl)ethynyl)-N-(4-((4-methylpiperazin-1-yl)methyl)-3-(trifluoromethyl)phenyl)benzamide]
[1]
  remaining binding at 1 µM: 12%
[2]
  remaining binding at 1 µM: 68%

## Cc1cn(-c2cc(NC(=O)c3ccc(C)c(C#Cc4cnc5c(Nc6cnn(C)c6)cccn45)c3)cc(C(F)(F)F)c2)cn1 [Example 12, 4-methyl-N-(3-(4-methyl-1H-imidazol-1-yl)-5-(trifluoromethyl)phenyl)-3-((8-((1-methyl-1H-pyrazol-4-yl)amino)imidazo[1,2-a]pyridin-3-yl)ethynyl)benzamide]
[1]
  remaining binding at 1 µM: 70%
[2]
  remaining binding at 1 µM: 100%

## Cc1ccc(NC(=O)C2(C(=O)Nc3ccc(F)cc3)CC2)cc1C#Cc1cnc2c(Nc3cnn(C(C)C)c3)cccn12 [Example 78]
[1]
  remaining binding at 1 µM: 100%
[2]
  remaining binding at 1 µM: 100%

— patent US10870647B2, “Imidazopyridine derivative, method for preparing same, and pharmaceutical composition containing same as active ingredient for preventing or treating cancer” (DAEGU-GYEONGBUK MEDICAL INNOVATION FOUNDATION, priority 2016, dated 2020)
